These are literature values, as cited in article PMC12658903 (RSC Medicinal Chemistry, 2025).

What is called IC50 is the concentration that inhibits the measured activity by half. For orientation: pIC50 means −log10 of the IC50, conventionally taken in molar units.

One data set has as its system HAT. The settings on record: read-out: IC50 (μM) HAT; cited from earlier work.
For the next data set, the system named is TMPRSS2. The settings on record: read-out: IC50 (μM) TMPRSS2; cited from earlier work.
The next data set deals with furin. Particulars: read-out: IC50 furin; cited from earlier work.

Molecules are shown by their SMILES. pIC50: −log10 of the molar value.

For `CN(C)C(=O)COC(=O)Cc1ccc(OC(=O)c2ccc(NC(=N)N)cc2)cc1` [Camostat, camostat], the IC50 was 0.151 µM with HAT and […] with TMPRSS2.
For `N=C(N)c1ccc(/N=N/Nc2ccc(C(=N)N)cc2)cc1` [diminazen], in the data set with furin, the pIC50 is 4.88.
